The target in series [1] is CYP2C9 (Homo sapiens, UniProt P11712). The series is described as follows: CYP P450 inhibition in HLMs (Eurofins Panlabs). It counts as in vitro ADME. More on the design: from tissue; host or cells: human liver microsomes (HLMs). To be noted: microsomes, S-CE-123 10 µM, range given for CYP2C9, CYP1A and CYP2D6 together, read-out: inhibition of control values. The method, then:
(§1) In vitro metabolism assays for the cytochrome (CYP) P450 inhibition of S-CE-123 was outsourced to Eurofins Panlabs (St. Charles, MO, USA, study number 100050638). Briefly, 0.1 mg/mL of the HLMs was incubated for 10 min at 37 °C with substrate (10 µM phenacetin for CYP1A, 100 µM bupropion for CYP2B6, 10 µM amodiaquine for CYP2C8, 10 µM diclofenac for CYP2C9, 0.5 µM omeprazole for CYP2C19, 5 µM dextromethorphan for CYP2D6, 5 µM midazolam for CYP3A, and 50 µM testosterone for CYP3A4) in the presence/absence of S-CE-123 (10 µM). The peak areas corresponding to the metabolite of each substrate were recorded. The percent of control activity was then calculated by comparing the peak area obtained in the presence of the test compound to that obtained in the absence of the test compound. Subsequently, the percent inhibition was calculated by subtracting the percent control activity from 100 for each compound. The IC50 values (concentration causing a half-maximal inhibition of control values) were determined using non-linear regression analysis of the concentration–response curve using Hill equation curve fitting.

In series [2] the target is CYP2C19 (Homo sapiens, UniProt P33261). The series can be described thus: CYP P450 inhibition in HLMs (Eurofins Panlabs). More on the design: from tissue; host or cells: human liver microsomes (HLMs). The settings on record: S-CE-123 10 µM. It counts as in vitro ADME. The method, then:
as §1

The subject of series [3] is human isoforms of the DAT. More on the design: method as in PMID 29230168. To be noted: HEK293 cells; cited from earlier work.
Series [4] has as its system SERT. Set-up: method as in PMID 29410048. To be noted: cited from earlier work.
Series [5] concerns NET. More on the design: method as in PMID 29410048. To be noted: cited from earlier work.
Series [6] concerns CYP3A. The series can be described thus: CYP P450 inhibition in HLMs (Eurofins Panlabs). Format: in vitro ADME, human. To be noted: S-CE-123 10 µM. Here is the method:
as §1

The target of series [7] is human DAT. To be noted: cell lines expressing human DAT; read-out: Inhibitory constant, Ki; cited from earlier work.
Series [8] can be described thus: Systemic pharmacokinetic parameters used in simulation exercise. To be noted: parameter used in simulation; for clearance / Vd: plasma; for clearance: rat 0.3 kg, read-out: Systemic clearance, CL (converted); for Vd: rat, read-out: Apparent volume of distribution, Vd. Format: in vivo, rat. Here is the method: In order to minimize the usage of animals and gain high confidence in the tissue distribution, a 4 h constant intravenous infusion study was designed based on the systemic pharmacokinetic parameters determined elsewhere. The catheters were surgically implanted a day before the PK experiment. The rats (n = 3 per compound) were then individually placed into a CMA 120 system (CMA, Solna, Sweden). […] A dose of 20 mg/kg was administered as a combination of an initial short 10 min infusion as a loading dose followed by a constant infusion up to 4 h, targeting a steady-state total plasma concentration of around 1000 ng/mL for each compound (based on the pilot study results). Blood was collected into heparinized Eppendorf tubes via a femoral artery catheter at 0 (before infusion starts) 1, 2, 3, and 4 h after the infusion started and immediately centrifuged at 10,000 rpm for 5 min at +4 °C. Plasma was then collected and kept at −20 °C. At 4 h, the rats were anesthetized via inhalation of 2.5% isoflurane (Abbot Scandinavia, Solna, Sweden), balanced with 1.5 L/min oxygen, after which the terminal blood and tissue samples were collected. […] The tissue samples (brain, spinal cord, liver, and kidney) were rapidly removed, pre-weighed into a 2 mL hard tissue homogenizing tube with mini-beads, and subsequently homogenized in 2 volumes of MQ water using a 4-Place Bead Mill Homogenizer (VWR, Stockholm, Sweden) at the maximal speed for 2 min and thereafter kept at +4 °C. The plasma and tissue homogenate samples were stored at −20 °C until LC–MS analysis.
The simulation was performed at a given initial total plasma concentration to be equal to the steady-state concentrations obtained in the neuroPK study, utilizing the parameters listed in Supplementary Table S4. A two-compartment model consisting of blood and brain compartments with a focus on the unbound concentrations was used for the simulation exercise (see details on the structure of the model in Supplementary Figure S5). The representative unbound plasma and brain profiles are presented in Supplementary Figure S6.
Table S4. Parameters used in simulation exercise.
Fraction of un bound in unitless 0.252 0.797
Rate of BBB transport parameters*
Ext ent of BBB transport and intra-brain dist ribution
Unbound brain-t o-plasma unitless 0.46 0.097 concentrati on rat io, Kp,uu,brain
Unbound volume of mL/g brain 5.21 3.73 distribution in brain, Vu,brain
Additional parameters used
Infusi on rate mg/h 0.05 1.0
* Data of blood-brain barrier per meation of 100 µM CE-123 and modafinil across an in vitro Transw ell model based on mouse cell line cerebEND were included in the simulation. Experimental procedures were published previously The permeability coefficients w ere calculated according to the clearance principle deduct ing blank inserts without cells.
**Similar apparent permeability in human BBB cell culture model and rat endot helial cells was assumed.

Series [9] is described as follows: In vitro plasma stability assay. Format: in vitro ADME. To be noted: rat plasma. Here is the method:
In vitro plasma stability assay was used in the scope of the validation studies. Briefly, 40 μL of blank rat plasma or blank rat plasma containing 10% DMF as an inhibitor was first pre-warmed for 5 min at 37 °C using a Thermomixer® comfort (Eppendorf, Hamburg, Germany). […] The reaction was terminated after 0, 1, 2, and 4 h, via the addition of 50 μL of ice-cold ACN containing the IS solution. The samples were centrifuged for 10 min at 3000× g at 4 °C. The supernatant of all samples was diluted with 0.1% FA in water, 1:2 (v:v), and 10 µL of the sample was injected onto the LC–HRMS system.

Sequence of CYP2C19 (P33261 whole entry): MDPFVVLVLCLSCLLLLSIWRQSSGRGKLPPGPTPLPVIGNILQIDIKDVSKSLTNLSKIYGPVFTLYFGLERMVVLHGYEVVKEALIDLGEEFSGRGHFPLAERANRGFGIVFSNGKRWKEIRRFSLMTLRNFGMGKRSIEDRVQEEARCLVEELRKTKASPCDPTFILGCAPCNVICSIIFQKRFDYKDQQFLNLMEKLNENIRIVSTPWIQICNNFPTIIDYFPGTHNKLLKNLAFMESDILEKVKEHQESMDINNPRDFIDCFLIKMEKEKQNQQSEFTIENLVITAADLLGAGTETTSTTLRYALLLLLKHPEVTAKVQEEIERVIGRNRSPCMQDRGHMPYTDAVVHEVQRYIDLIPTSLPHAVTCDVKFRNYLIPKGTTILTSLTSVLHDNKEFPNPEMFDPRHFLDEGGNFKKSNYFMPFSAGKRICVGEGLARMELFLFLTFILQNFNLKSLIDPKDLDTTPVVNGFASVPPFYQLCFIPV
Sequence of CYP2C9 (P11712 whole entry): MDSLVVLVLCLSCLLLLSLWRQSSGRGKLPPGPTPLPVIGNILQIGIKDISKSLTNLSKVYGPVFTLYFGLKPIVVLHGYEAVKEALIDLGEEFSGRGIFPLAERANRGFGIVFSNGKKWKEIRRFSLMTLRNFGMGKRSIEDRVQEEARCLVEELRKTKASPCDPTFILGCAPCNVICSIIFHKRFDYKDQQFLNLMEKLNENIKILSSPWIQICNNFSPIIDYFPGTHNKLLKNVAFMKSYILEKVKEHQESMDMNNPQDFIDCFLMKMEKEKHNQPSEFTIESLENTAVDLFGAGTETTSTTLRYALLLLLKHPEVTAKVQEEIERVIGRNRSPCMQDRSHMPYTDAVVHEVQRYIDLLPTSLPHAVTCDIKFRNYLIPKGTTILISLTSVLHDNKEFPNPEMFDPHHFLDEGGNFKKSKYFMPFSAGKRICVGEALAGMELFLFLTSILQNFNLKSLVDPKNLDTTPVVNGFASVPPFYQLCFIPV

The inhibition is the drop in the measured response relative to a control, in per cent. Usually Ki stands for the equilibrium dissociation constant of an inhibitor or competing ligand from its target. In general, clearance refers to the volume of plasma or blood freed of the substance per unit of time. Regarding `[O-][S@@+](Cc1cncs1)C(c1ccccc1)c1ccccc1` [S-CE-123], the inhibition at 10 min, 10 µM in series [1] lay within 47 to 68%. In [2], the “inhibition of control values” is given as “Low inhibition”. Moreover, in series [3], the “fold higher in vitro activity on the DAT than its R-enantiomer” value is around 8 fold. Moreover, the “activity on SERT” value in series [4] is “negligible activity”. Further, the “activity on NET” value in [5] is given as “negligible activity”. Moreover, the “inhibition of control values” in [6] is given as “Low inhibition”. Besides, in [7], the Ki is 610 nM. Moreover, in [8], the “Systemic clearance unbound, Clu” value is listed as 0.046 L/h; the clearance is 3.07 mL/min; the Vd was 0.232 L.
Consider `NC(=O)C[S@@+]([O-])C(c1ccccc1)c1ccccc1` [R-modafinil, reference compound], for which, in series [8], the “Systemic clearance unbound, Clu” value is given as 1.194 L/h; the clearance is 25 mL/min; the Vd was 1.02 L. Besides, the R-modafinil level remaining entry in series [9] (4 h incubation at 37 °C) was “about 50%”. The same molecule returned a metabolized in [9] (after 4 h at 37 °C) of 50%.

The record behind these values is paper PMC10707468, “Pharmacokinetics of Novel Dopamine Transporter Inhibitor CE-123 and Modafinil with a Focus on Central Nervous System Distribution” (International Journal of Molecular Sciences, 2023).
